pEC50: −log10 of the molar value.
Key:
ΔF508-CFTR [1] = biological target: T1, ΔF508-CFTR (Homo sapiens, UniProt P13569, DEL508-508); assay: CFTR cell surface levels using HRP-tagged ΔF508-CFTR expressing CFBE cells, in the presence of a co-corrector; type: cell-based
T1 construct: host or cells: CFBE41o-, doxycycline-inducible
Procedure, shortened: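 Cells were seeded with 0.5 μg/mL doxycycline and held 68 h at 37 °C. Test compounds plus 3 μM co-corrector (final 0.1% DMSO) were then added for 20 h at 33 °C. Washed cells received HRP substrate, and luminescence was normalized between DMSO and 3 μM co-corrector controls.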

ΔF508-CFTR [2] = biological target: T1, ΔF508-CFTR; assay: CFTR cell surface levels using HRP-tagged ΔF508-CFTR expressing CFBE cells, intrinsic corrector capacity; type: cell-based
Procedure, shortened: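 Here the cells express ΔF508-CFTR with horseradish peroxidase inserted in extracellular loop 4, so only rescued channel at the surface gives luminescent signal. Compounds act on their own, 20 h at the reduced temperature of 33 °C; values are percent activity relative to DMSO and a 3 μM corrector.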

[3] = HRP-tagged ΔF508-CFTR expressing CFBE cells, in the presence of 3 μM co-corrector
[4] = HRP-tagged ΔF508-CFTR expressing CFBE cells, in the presence of 3 μM co-corrector, read-out: EC50
[5] = HRP-tagged ΔF508-CFTR CFBE41o- cells, compounds alone (intrinsic corrector capacity), 20 hours at 33° C., positive control 3 μM corrector
[6] = HRP-tagged ΔF508-CFTR CFBE41o- cells, compounds alone (intrinsic corrector capacity), 20 hours at 33° C., read-out: EC50
[7] = HRP-tagged ΔF508-CFTR expressing CFBE cells, intrinsic corrector capacity (no co-corrector), 33° C., 20 hours
[8] = HRP-tagged ΔF508-CFTR expressing CFBE cells, intrinsic corrector capacity (no co-corrector), 33° C., 20 hours, read-out: EC50

T1 sequence (P13569 with tags, fused parts or gaps DEL508-508): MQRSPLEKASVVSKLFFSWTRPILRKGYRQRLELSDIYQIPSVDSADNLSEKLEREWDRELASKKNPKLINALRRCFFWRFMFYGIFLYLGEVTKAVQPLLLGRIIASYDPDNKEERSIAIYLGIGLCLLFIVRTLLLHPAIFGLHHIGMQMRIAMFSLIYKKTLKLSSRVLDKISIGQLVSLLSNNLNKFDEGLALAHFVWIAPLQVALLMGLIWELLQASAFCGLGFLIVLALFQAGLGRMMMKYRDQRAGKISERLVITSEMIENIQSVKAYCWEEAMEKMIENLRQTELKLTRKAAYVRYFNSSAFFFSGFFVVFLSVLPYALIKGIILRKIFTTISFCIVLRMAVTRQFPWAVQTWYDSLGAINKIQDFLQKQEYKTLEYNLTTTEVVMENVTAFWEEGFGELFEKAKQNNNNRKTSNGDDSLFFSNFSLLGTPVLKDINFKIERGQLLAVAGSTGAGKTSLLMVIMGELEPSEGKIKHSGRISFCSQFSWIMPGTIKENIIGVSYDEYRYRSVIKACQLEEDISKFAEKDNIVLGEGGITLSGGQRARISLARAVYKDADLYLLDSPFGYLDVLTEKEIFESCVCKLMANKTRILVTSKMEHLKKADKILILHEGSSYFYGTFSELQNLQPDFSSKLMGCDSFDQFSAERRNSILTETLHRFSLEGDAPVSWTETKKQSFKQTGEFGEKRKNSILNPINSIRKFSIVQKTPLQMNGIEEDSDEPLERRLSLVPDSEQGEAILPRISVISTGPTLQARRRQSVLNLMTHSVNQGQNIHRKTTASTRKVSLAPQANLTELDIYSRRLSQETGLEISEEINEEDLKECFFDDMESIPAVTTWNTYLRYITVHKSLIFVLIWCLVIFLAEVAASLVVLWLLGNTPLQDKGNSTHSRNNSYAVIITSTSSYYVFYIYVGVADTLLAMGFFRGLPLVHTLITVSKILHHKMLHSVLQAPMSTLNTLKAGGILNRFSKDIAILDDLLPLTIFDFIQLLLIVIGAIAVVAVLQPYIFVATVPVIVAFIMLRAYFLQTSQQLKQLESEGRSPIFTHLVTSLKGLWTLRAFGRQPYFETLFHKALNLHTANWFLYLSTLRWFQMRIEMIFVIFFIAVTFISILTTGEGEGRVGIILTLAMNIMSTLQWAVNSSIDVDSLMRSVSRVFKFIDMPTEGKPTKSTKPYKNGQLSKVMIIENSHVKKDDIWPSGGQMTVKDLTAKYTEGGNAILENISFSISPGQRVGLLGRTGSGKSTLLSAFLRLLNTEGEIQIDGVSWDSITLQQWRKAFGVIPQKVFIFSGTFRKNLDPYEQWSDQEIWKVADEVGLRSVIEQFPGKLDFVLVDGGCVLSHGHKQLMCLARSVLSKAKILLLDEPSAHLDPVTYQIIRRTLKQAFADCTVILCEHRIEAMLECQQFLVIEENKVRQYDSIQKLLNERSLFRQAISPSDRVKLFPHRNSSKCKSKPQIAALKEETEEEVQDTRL

Structure (SMILES)	% Activation (ΔF508-CFTR [1]; [3])	pEC50 (ΔF508-CFTR [1]; [4])	% Activation (ΔF508-CFTR [2]; [5])	pEC50 (ΔF508-CFTR [2]; [6])	pEC50 (ΔF508-CFTR [1])	pEC50 (ΔF508-CFTR [2])	% Activation (ΔF508-CFTR [2]; [7])	pEC50 (ΔF508-CFTR [2]; [8])
Cc1nn(-c2ccccc2)c2nc(C(=O)O)cc(-c3ccc(N4CCC(N(C)C)C4)cc3)c12 (centres unmarked) [compound 217, 4-{4-[3-(dimethylamino)pyrrolidin-1-yl]phenyl}-3-methyl-1-phenyl-1H-pyrazolo[3,4-b]pyridine-6-carboxylic acid]	342.3%	5.83	129.7%	5.82				
Cc1nn(-c2ccccc2)c2nc(C(=O)O)cc(-c3ccc(N4CCN(CCC(F)(F)F)CC4)cc3)c12 [compound 82, 3-methyl-1-phenyl-4-{4-[4-(3,3,3-trifluoropropyl)piperazin-1-yl]phenyl}-1H-pyrazolo[3,4-b]pyridine-6-carboxylic acid]	335.65%	6.01	135.95%	6.00				
O=C(O)c1cc(N2CCC[C@@H](CO)C2)c2c(C3CCC3)nn(-c3ccccc3)c2n1 [compound 544, 3-cyclobutyl-4-[(3R)-3-(hydroxymethyl)piperidin-1-yl]-1-phenyl-1H-pyrazolo[3,4-b]pyridine-6-carboxylic acid]	273%				6.34	6.10	129.55%	
O=C(O)c1cc(N2CCC(N3CCOCC3)CC2)c2c(C3CCC3)nn(-c3cc(F)cc(F)c3)c2n1 [compound 905, 3-cyclobutyl-1-(3,5-difluorophenyl)-4-[4-(morpholin-4-yl)piperidin-1-yl]-1H-pyrazolo[3,4-b]pyridine-6-carboxylic acid]	466.55%	6.84					278.8%	6.44
CC(C)c1nn(-c2cccc(N(C)C)c2)c2nc(C(=O)O)cc(-c3cnc(N(C)C4CCOCC4)nc3)c12 [compound 200, 1-[3-(dimethylamino)phenyl]-4-{2-[methyl(oxan-4-yl)amino]pyrimidin-5-yl}-3-(propan-2-yl)-1H-pyrazolo[3,4-b]pyridine-6-carboxylic acid]	594.2%	6.29	330.83%	6.36				
O=C(O)c1cc(N2CCC([C@@H](F)CO)CC2)c2c(C3CCC3)nn(-c3ccccc3)c2n1 [compound 458, 3-cyclobutyl-4-{4-[(1R)-1-fluoro-2-hydroxyethyl]piperidin-1-yl}-1-phenyl-1H-pyrazolo[3,4-b]pyridine-6-carboxylic acid]	399.6%	6.56					216.4%	6.31
O=C(O)c1cc(OCCN2CCS(=O)(=O)CC2)c2c(C3CCC3)nn(-c3ccccc3)c2n1 [compound 436, 3-cyclobutyl-4-[2-(1,1-dioxo-lλ^6,4-thiazinan-4-yl)ethoxy]-1-phenyl-1H-pyrazolo[3,4-b]pyridine-6-carboxylic acid]	157.15%	5.60					24.16%	5.38
O=C(O)c1cc(N2CCC(N3CCOCC3)CC2)c2c(C3CCC3)nn(-c3cccc(C(F)(F)F)c3)c2n1 [compound 826, 3-cyclobutyl-4-[4-(morpholin-4-yl)piperidin-1-yl]-1-[3-(trifluoromethyl)phenyl]-1H-pyrazolo[3,4-b]pyridine-6-carboxylic acid]	528.15%	6.99					314.4%	6.80
CC1(C)OC[C@@H](COc2cc(C(=O)O)nc3c2c(C2CCC2)nn3-c2ccccc2)O1 [compound 618, 3-cyclobutyl-4-{[(4R)-2,2-dimethyl-1,3-dioxolan-4-yl]methoxy}-1-phenyl-1H-pyrazolo[3,4-b]pyridine-6-carboxylic acid]	315.25%	6.45					105.9%	6.26
Cc1nn(-c2ccccc2)c2nc(C(=O)O)cc(OCC3CCCC3(F)F)c12 (centres unmarked) [compound 389, 4-[(2,2-difluorocyclopentyl)methoxy]-3-methyl-1-phenyl-1H-pyrazolo[3,4-b]pyridine-6-carboxylic acid]	280.6%	5.89	101.73%	5.78				
O=C(O)c1cc(N2CCC3(CC2)CC(F)(F)CO3)c2c(C3CCC3)nn(-c3ccccc3)c2n1 [compound 453, 3-cyclobutyl-4-(3,3-difluoro-1-oxa-8-azaspiro[4.5]decan-8-yl)-1-phenyl-1H-pyrazolo[3,4-b]pyridine-6-carboxylic acid]	275.35%	6.18					110.68%	6.14
COC1CN(C(=O)COc2cc(C(=O)O)nc3c2c(C2CCC2)nn3-c2ccccc2)C1 [compound 481, 3-cyclobutyl-4-[2-(3-methoxyazetidin-1-yl)-2-oxoethoxy]-1-phenyl-1H-pyrazolo[3,4-b]pyridine-6-carboxylic acid]	210.3%	5.52					48.6%	5.48
Cc1nn(-c2ccccc2)c2nc(C(=O)O)cc(-c3ccc(N4CCN(CCO)CC4)cc3)c12 [compound 107]	164.5%	5.48	20.98%	< 5.00				
COCCN(C)c1ccc(-c2cc(C(=O)O)nc3c2c(C(C)C)nn3C2CCCCC2)cc1 [compound 184, 1-cyclohexyl-4-{4-[(2-methoxyethyl)(methyl)amino]phenyl}-3-(propan-2-yl)-1H-pyrazolo[3,4-b]pyridine-6-carboxylic acid]	377.4%	6.17	170.25%	6.03				
O=C(O)c1cc(N2CCCOCC2)c2c(C3CCC3)nn(-c3ccccc3)c2n1 [compound 545, 3-cyclobutyl-4-(1,4-oxazepan-4-yl)-1-phenyl-1H-pyrazolo[3,4-b]pyridine-6-carboxylic acid]	247.05%	6.25					109.4%	5.94
Cc1nn(-c2ccccc2)c2nc(C(=O)O)cc(N3CCC(C(=O)N(C)C)CC3)c12 [compound 319, 4-[4-(dimethylcarbamoyl)piperidin-1-yl]-3-methyl-1-phenyl-1H-pyrazolo[3,4-b]pyridine-6-carboxylic acid]	270.75%	5.38	80.905%	5.60				
CN(c1cc(C(=O)O)nc2c1c(C1CCC1)nn2-c1ccccc1)[C@H]1C[C@@H](O)C1 [compound 533, 3-cyclobutyl-4-[(cis-3-hydroxycyclobutyl)(methyl)amino]-1-phenyl-1H-pyrazolo[3,4-b]pyridine-6-carboxylic acid]	315.85%	5.91					114.5%	5.49
O=C(O)c1cc(N2CCC3(CCCC3)CC2)c2c(C3CCC3)nn(-c3ccccc3)c2n1 [compound 452, 4-(8-azaspiro[4.5]decan-8-yl)-3-cyclobutyl-1-phenyl-1H-pyrazolo[3,4-b]pyridine-6-carboxylic acid]	282.3%	5.95					74.98%	5.95
Cc1nn(-c2ccccc2)c2nc(C(=O)O)cc(OCCN(CC(C)C)C3CC3)c12 [compound 385, 4-{2-[cyclopropyl(2-methylpropyl)amino]ethoxy}-3-methyl-1-phenyl-1H-pyrazolo[3,4-b]pyridine-6-carboxylic acid]	238.75%	5.78	54.89%	5.78				
CC(=O)NC1CCN(c2cc(C(=O)O)nc3c2c(C)nn3-c2ccccc2)CC1 [compound 292, 4-(4-acetamidopiperidin-1-yl)-3-methyl-1-phenyl-1H-pyrazolo[3,4-b]pyridine-6-carboxylic acid]	141.1%	5.38	15.095%	5.12				
O=CN1CCN(CC2CCN(c3cc(C(=O)O)nc4c3c(C3CCC3)nn4-c3ccccc3)CC2)CC1 [compound 843, 3-cyclobutyl-4-{4-[(4-formylpiperazin-1-yl)methyl]piperidin-1-yl}-1-phenyl-1H-pyrazolo[3,4-b]pyridine-6-carboxylic acid]	499.3%	6.68					264.2%	6.44
CC(=O)N1CC(Oc2nn(-c3ccccc3)c3nc(C(=O)O)cc(-c4ccc(N5CCOCC5)cc4)c23)C1 [compound 497, 3-[(1-acetylazetidin-3-yl)oxy]-4-[4-(morpholin-4-yl)phenyl]-1-phenyl-1H-pyrazolo[3,4-b]pyridine-6-carboxylic acid]	157.55%	5.48					24.76%	< 5.00
CCOCC(=O)N1CCN(c2cc(C(=O)O)nc3c2c(C(C)C)nn3-c2ccc(F)cc2)CC1 [compound 775, 4-[4-(ethoxyacetyl)piperazin-1-yl]-1-(4-fluorophenyl)-3-(propan-2-yl)-1H-pyrazolo[3,4-b]pyridine-6-carboxylic acid]	262.4%	5.78					93.07%	5.78

Reference: US9796711B2, “Substituted pyrazolo[3,4-b]pyridin-6-carboxylic acids and method of use” (AbbVie S.àr.l., priority 2015, dated 2017)
